# Experimental data from PMC11266321 (EJNMMI Radiopharmacy and Chemistry, 2024).
# Legend:
# [1] = tested on: α2-Adrenergic (non-selective); assay: Radioligand binding inhibition, α2-Adrenergic; details: 10 µM; radioligand [^3H]Rauwolscine; mean of duplicate
# Method: (§1) Interaction of MMP with 28 binding sites was examined, including major classes of neurotransmitter receptor, uptake system, and ion channels (Sekisui Medical, Naka, Japan). MMP was tested in all assays at 10 µM. […] 10.2.3 (GraphPad Software, San Diego, CA). Each determination was made in duplicate.
# (§2) Test substance concentration : 10 µM, positive substance concentration : 10 µM
# (§3) Data are expressed as the mean values of duplicate samples.
# (§4) The % inhibition was calculated from “100 – binding ratio”.
# (§5) Binding ratio: [(B - N) / (B0 - N)] × 100 (%)
# (§6) B: Bound radioactivity in the presence of test substance and positive substance (individual value)
# (§7) B0: Total bound radioactivity in the absence of test substance and positive substance (mean value)
# (§8) N: Non-specific bound radioactivity (mean value)
# Serotonin 5HT3 (human) = target: T1, Serotonin 5HT3 (human) (Homo sapiens, UniProt P46098); assay: Radioligand binding inhibition, Serotonin 5HT3; details: 10 µM; radioligand [^3H]GR65630; mean of duplicate
# T1 construct: Sekisui Medical (contract laboratory that ran the panel)
# T1 sequence (P46098 24-478): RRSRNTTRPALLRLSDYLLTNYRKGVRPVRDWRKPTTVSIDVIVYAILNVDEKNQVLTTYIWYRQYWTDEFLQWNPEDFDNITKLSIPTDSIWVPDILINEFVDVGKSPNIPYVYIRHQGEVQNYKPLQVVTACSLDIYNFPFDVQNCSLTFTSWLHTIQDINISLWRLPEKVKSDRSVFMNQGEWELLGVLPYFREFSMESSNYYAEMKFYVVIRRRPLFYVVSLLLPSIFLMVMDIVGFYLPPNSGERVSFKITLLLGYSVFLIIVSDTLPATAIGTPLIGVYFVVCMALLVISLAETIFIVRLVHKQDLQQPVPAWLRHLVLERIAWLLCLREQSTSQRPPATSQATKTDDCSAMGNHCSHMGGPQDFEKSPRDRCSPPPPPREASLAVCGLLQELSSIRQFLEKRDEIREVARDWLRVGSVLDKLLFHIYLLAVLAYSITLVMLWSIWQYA
# Method: as §1, §2, §3, §4, §5, §6, §7, §8
# GABA A (agonist site) = assay: Radioligand binding inhibition, GABA A agonist site; details: 10 µM; radioligand [^3H]Muscimol; mean of duplicate
# Method: as §1, §2, §3, §4, §5, §6, §7, §8
# Serotonin 5HT2A = target: T2, Serotonin 5HT2A (Homo sapiens, UniProt P28223); assay: Radioligand binding inhibition, Serotonin 5HT2A; details: 10 µM; radioligand [^3H]Ketanserin; mean of duplicate
# T2 construct: Sekisui Medical (contract laboratory that ran the panel)
# T2 sequence (P28223 whole entry): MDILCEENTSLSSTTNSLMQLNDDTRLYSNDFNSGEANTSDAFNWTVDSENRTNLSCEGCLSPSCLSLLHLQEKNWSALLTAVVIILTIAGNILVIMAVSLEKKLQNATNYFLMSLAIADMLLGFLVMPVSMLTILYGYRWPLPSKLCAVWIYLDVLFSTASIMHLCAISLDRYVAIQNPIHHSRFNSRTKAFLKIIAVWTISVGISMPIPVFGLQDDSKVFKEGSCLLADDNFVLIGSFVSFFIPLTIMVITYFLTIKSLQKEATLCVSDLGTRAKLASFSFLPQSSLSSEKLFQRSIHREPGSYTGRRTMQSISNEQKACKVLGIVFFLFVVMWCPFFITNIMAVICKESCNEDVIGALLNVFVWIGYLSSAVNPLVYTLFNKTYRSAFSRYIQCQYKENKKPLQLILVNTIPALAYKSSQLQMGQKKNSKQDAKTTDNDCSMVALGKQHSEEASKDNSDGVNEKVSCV
# Method: as §1, §2, §3, §4, §5, §6, §7, §8
# Nicotinic (neuronal) = type: binding; details: 10 µM; radioligand [^3H]Cytisine; mean of duplicate
# [2] = tested on: Glutamate (NMDA phencyclidine site); assay: Radioligand binding inhibition, Glutamate NMDA phencyclidine site; details: 10 µM; radioligand [^3H]MK-801; mean of duplicate
# Method: as §1, §2, §3, §4, §5, §6, §7, §8
# Serotonin 5HT1A = target: T3, Serotonin 5HT1A (Homo sapiens, UniProt P08908); assay: Radioligand binding inhibition, Serotonin 5HT1A; details: 10 µM; radioligand [^3H]8-OH DPAT; mean of duplicate
# T3 construct: Sekisui Medical (contract laboratory)
# T3 sequence (P08908 whole entry): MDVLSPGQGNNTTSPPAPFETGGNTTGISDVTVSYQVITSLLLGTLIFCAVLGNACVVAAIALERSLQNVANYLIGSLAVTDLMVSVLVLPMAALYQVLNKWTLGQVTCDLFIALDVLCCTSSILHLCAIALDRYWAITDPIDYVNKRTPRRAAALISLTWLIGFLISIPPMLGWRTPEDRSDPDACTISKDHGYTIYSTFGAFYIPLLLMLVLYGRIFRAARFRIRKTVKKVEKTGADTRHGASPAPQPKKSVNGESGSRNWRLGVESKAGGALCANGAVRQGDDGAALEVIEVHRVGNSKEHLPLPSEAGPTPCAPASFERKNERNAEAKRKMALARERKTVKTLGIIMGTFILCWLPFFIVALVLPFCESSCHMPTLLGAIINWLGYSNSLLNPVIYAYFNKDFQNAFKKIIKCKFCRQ
# Method: as §1, §2, §3, §4, §5, §6, §7, §8
# Glutamate (Ketamine) = assay: Radioligand binding inhibition, Glutamate (Ketamine); details: 10 µM; radioligand [^3H]Kainic acid; mean of duplicate
# Dopamine D2 = target: T4, Dopamine D2 (Homo sapiens, UniProt P14416); assay: Radioligand binding inhibition, Dopamine D2; details: 10 µM; radioligand [^3H]Spiperone; mean of duplicate
# T4 construct: Sekisui Medical (contract laboratory)
# T4 sequence (P14416 whole entry): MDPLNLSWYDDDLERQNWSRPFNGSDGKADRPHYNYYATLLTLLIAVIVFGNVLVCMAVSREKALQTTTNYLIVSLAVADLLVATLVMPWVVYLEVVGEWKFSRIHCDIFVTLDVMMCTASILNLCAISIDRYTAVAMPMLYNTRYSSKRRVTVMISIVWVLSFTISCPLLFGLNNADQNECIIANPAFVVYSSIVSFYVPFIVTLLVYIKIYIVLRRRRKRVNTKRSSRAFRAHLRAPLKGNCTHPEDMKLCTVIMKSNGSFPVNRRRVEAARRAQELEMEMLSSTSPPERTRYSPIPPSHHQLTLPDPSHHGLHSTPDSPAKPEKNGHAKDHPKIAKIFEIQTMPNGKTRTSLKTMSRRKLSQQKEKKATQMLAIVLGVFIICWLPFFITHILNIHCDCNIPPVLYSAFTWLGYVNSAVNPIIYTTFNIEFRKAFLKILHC
# Method: as §1, §2, §3, §4, §5, §6, §7, §8
# Histamine H2 = target: T5, Histamine H2 (Homo sapiens, UniProt P25021); assay: Radioligand binding inhibition, Histamine H2; details: 10 µM; radioligand [^125I]Iodoaminopotentidine; mean of duplicate
# T5 construct: Sekisui Medical (contract laboratory)
# T5 sequence (P25021 whole entry): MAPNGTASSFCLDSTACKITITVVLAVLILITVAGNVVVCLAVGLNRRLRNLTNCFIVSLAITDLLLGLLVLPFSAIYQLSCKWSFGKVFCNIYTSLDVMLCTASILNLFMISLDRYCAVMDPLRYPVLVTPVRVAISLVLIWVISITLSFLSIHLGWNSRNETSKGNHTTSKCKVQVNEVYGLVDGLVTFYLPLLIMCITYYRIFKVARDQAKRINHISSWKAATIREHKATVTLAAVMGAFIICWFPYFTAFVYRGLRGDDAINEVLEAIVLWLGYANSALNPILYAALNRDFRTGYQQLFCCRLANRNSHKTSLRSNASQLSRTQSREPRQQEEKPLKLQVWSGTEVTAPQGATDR
# Method: as §1, §2, §3, §4, §5, §6, §7, §8
# GABA A (BZ central) = assay: Radioligand binding inhibition, GABA A BZ central; details: 10 µM; radioligand [^3H]Flunitrazepam; mean of duplicate
# Method: as §1, §2, §3, §4, §5, §6, §7, §8
# [3] = target: T6, Glutamate (NMDA glycine site) (Homo sapiens, UniProt Q05586); assay: Radioligand binding inhibition, Glutamate NMDA glycine site; details: 10 µM; radioligand [^3H]MDL105,519; mean of duplicate
# T6 construct: Sekisui Medical (contract laboratory)
# Method: as §1, §2, §3, §4, §5, §6, §7, §8
# Glutamate (AMPA) = assay: Radioligand binding inhibition, Glutamate AMPA; details: 10 µM; radioligand [^3H]AMPA; mean of duplicate
# Method: as §1, §2, §3, §4, §5, §6, §7, §8
# Opiate (non-selective) = assay: Radioligand binding inhibition, Opiate; details: 10 µM; radioligand [^3H]Naloxone; mean of duplicate
# Method: as §1, §2, §3, §4, §5, §6, §7, §8
# [4] = tested on: β-Adrenergic (non-selective); assay: Radioligand binding inhibition, β-Adrenergic; details: 10 µM; radioligand [^3H]DHA; mean of duplicate
# Method: as §1, §2, §3, §4, §5, §6, §7, §8
# [5] = tested on: Glutamate (NMDA agonist site); assay: Radioligand binding inhibition, Glutamate NMDA agonist site; details: 10 µM; radioligand [^3H]CGP-39653; mean of duplicate
# Method: as §1, §2, §3, §4, §5, §6, §7, §8
# [6] = tested on: Glutamate (non-selective); assay: Radioligand binding inhibition, Glutamate non-selective; details: 10 µM; radioligand [^3H]Glutamic acid; mean of duplicate
# Method: as §1, §2, §3, §4, §5, §6, §7, §8
# [7] = tested on: Glycine (strychnine site); type: binding; details: 10 µM; radioligand [^3H]Strychine; mean of duplicate
compound,measurement,setting,value
"COC(=O)[C@@H]1[C@H]2C[C@H]3c4[nH]c5ccccc5c4CCN3C[C@@H]2CC[C@@H]1O [Yohimbine, reference compound]",Inhibition ratio (%),[1],89.82%
"CN1[C@@H]2CC[C@H]1C[C@@H](OC(=O)c1c[nH]c3ccccc13)C2 [Tropisetron, reference compound]",Inhibition ratio (%),Serotonin 5HT3 (human),99.78%
"NCc1cc(=O)[nH]o1 [Muscimol, reference compound]",Inhibition ratio (%),GABA A (agonist site),96.50%
"O=C(c1ccc(F)cc1)C1CCN(CCn2c(=O)[nH]c3ccccc3c2=O)CC1 [Ketanserin, reference compound]",Inhibition ratio (%),Serotonin 5HT2A,98.94%
(±)-Nicotine [reference compound],Inhibition ratio (%),Nicotinic (neuronal),95.62%
(+)-MK-801 [reference compound],Inhibition ratio (%),[2],100.00%
"NCCc1c[nH]c2ccc(O)cc12 [Serotonin, reference compound]",Inhibition ratio (%),Serotonin 5HT1A,95.99%
"C=C(C)[C@H]1CN[C@H](C(=O)O)[C@H]1CC(=O)O [Kainic acid, reference compound]",Inhibition ratio (%),Glutamate (Ketamine),97.79%
(+)-Butaclamol [reference compound],Inhibition ratio (%),Dopamine D2,95.06%
"CN/C(=N/CCSCc1nc[nH]c1C)NC#N [Cimetidine, reference compound]",Inhibition ratio (%),Histamine H2,97.63%
"CN1C(=O)CN=C(c2ccccc2)c2cc(Cl)ccc21 [Diazepam, reference compound]",Inhibition ratio (%),GABA A (BZ central),100.00%
"O=C(O)/C(=C/c1c(C(=O)O)[nH]c2cc(Cl)cc(Cl)c12)c1ccccc1 [MDL105,519, reference compound]",Inhibition ratio (%),[3],97.35%
"Cc1o[nH]c(=O)c1C[C@H](N)C(=O)O [(S)-AMPA, reference compound]",Inhibition ratio (%),Glutamate (AMPA),98.65%
"C=CCN1CC[C@]23c4c5ccc(O)c4O[C@H]2C(=O)CC[C@@]3(O)[C@H]1C5 [Naloxone, reference compound]",Inhibition ratio (%),Opiate (non-selective),96.53%
"CC(C)NCC(O)COc1cccc2ccccc12 (racemic) [(±)-Propranolol, reference compound]",Inhibition ratio (%),[4],97.25%
"N[C@@H](CCC(=O)O)C(=O)O [L-Glutamic acid, reference compound]",Inhibition ratio (%),[5],100.00%
same,Inhibition ratio (%),[6],93.56%
"O=C1C[C@@H]2OCC=C3CN4CC[C@]56c7ccccc7N1[C@H]5[C@H]2[C@H]3C[C@H]46 [Strychnine, reference compound]",Inhibition ratio (%),[7],100.00%
